{
  "source": "patent US12545695B2",
  "about": "“Compounds for inhibiting neovascularization factors and use thereof” (UNIST (ULSAN NATIONAL INSTITUTE OF SCIENCE AND TECHNOLOGY), priority 2019, dated 2026)",
  "key": {"[1]": {"test_system": "oxygen-induced retinopathy mouse model", "test": "Oxygen-induced retinopathy mouse model, intraocular injection, retinal vascular analysis", "format": "in vivo, C57BL/6J mice", "conditions": "1 ul of 0.15 mM intraocularly injected once at P12, analysis P17 (FIG. 17)", "method": "An oxygen-induced retinopathy mouse model was induced by rearing young C57BL/6J (Hyochang Science Inc.) mice aged 7 days after birth (P7) in a hyperoxic chamber (Coy Lab. in vivo chamber, 75% O2) for 5 days (P12), and then rearing the mice in a normoxic environment for 5 days (P17). After the young mice were removed from the hyperoxic chamber (P12), 1 ul of SMX was intraocularly injected once at a concentration of 0.15 mM (0.1% DMSO). The SMX used for ocular injection was used after being diluted in phosphate buffer saline (1×PBS) to 0.1%, and 0.1% DMSO in 1×pbs was used in control mice. In the case of Eylea (aflibercept, anti-VEGFab), 40 ug was diluted in 1 ul and 1 ul was intraocularly injected.\n(§1) The oxygen-induced retinopathy mouse model was formed, and then perfused with 1×PBS and 4% PFA. After mouse eyes were extracted and fixed in 4% PFA, the retinas were isolated. The isolated retinas were washed with 1×PBS, and then blocked (0.1% BSA, 0.1% Triton X-100 in 1×PBS) at room temperature for 1 hour. The retinas were treated with a CD31 blood-vessel staining antibody (CD31, Cell Signaling, 1:100) overnight at 4° C. […] Blood vessel staining was analyzed under a fluorescence microscope (Zen, Axio Zoom). […]\nThe oxygen-induced retinopathy mouse model was formed, and then perfused with 1×PBS and 4% PFA. […] Blood vessel staining was analyzed under a fluorescence microscope (Zen, Axio Zoom). […]"}, "HIF-1α": {"test_system": "HIF-1α", "test": "Western blot of HIF-1α in ARPE-19 cells under hypoxia", "format": "cell-based, Human", "conditions": "ARPE-19, 1 μM, 1% oxygen, 6 hours (FIG. 26)", "method": "Human retinal pigmented epithelium ARPE-19 cells were seeded in the number of 3×10^5 on a 60-millimeter plate, and cultured at 37° C. and 5% CO2, and DMEM/F-12 including 10% fetal bovine serum and 1% penicillin & streptomycin was used as the medium for 2 days. Two days later, the cells were treated with DMSO (0.5%), SMx, SB-U005, SB-U009, SB-U011 and SB-U012 at 1 μM and cultured under 1% oxygen conditions in a hypoxia chamber for 6 hours, and then a western blot experiment was performed.\nAfter the cell culture experiment was completed, the cell culture solution was removed, the cells was washed once with cold PBS, and a RIPA solution (50 mM Tris-HCl pH 7.4, 150 mM NaCl, 0.25% Na-deoxycholate, 1% NP-40) was added thereto to harvest cells using a cell scraper. After the cells were sufficiently lysed, a 6× sample buffer was mixed with a cell suspension obtained by low-temperature centrifugation, the resulting mixture was boiled at 95° C. for 5 minutes, and then 12% SDS-PAGE was performed. […]\nThereafter, the membrane was washed twice with TBS-T (Tris-buffered saline+Tween-20), and then reacted with a secondary antibody (diluted at 1:5,000) at room temperature for 1 hour. After the membrane was washed twice with TBS-T, changes in protein expression level were measured by a Chemidoc system (GE, LAS 4000) using a Clarity Western ECL substrate (Bio-Rad)."}, "HIF1-α": {"test_system": "HIF1-α", "test": "Drug activity in MIO-M1-HRE/GFP cell line under hypoxia (GFP fluorescence)", "format": "cell-based", "conditions": "1% O2, 24 hours (FIG. 25)", "method": "After MIO-M1 Muller cells were transfected with a 5HRE/GFP plasmid (Addgene #46926) (jetPrime kit), plasmid-transfected cells were selected using 1 mg/ml G418 (neomycin) which is a selection marker. A stable cell line was manufactured by selecting cells that were growing in the form of a colony from single cells. The manufactured stable MIO-M1-HRE/GFP cell line was aliquoted into 96 wells and treated with a drug at each concentration the next day. After the cell line was exposed to a hypoxic environment (1% O2) for 24 hours, GFP (Ex/Em: 488/507) fluorescence signals were measured by a SYNERGY NEO microplate reader (BioTek Instrument). As a negative control, DMSO, which is a solvent in which a drug was dissolved, was used, and calculation was performed based on the negative control as 100%."}, "[2]": {"test_system": "oxygen-induced retinopathy mouse model", "test": "Oxygen-induced retinopathy mouse model, eye drop administration, retinal vascular analysis", "format": "in vivo, C57BL/6J mice", "conditions": "1 mM in Liposic, eye drops 3 times a day, P12 to P17; versus control eye (FIG. 18, 19)", "excerpt": "An oxygen-induced retinopathy mouse model was induced by rearing young C57BL/6J (Hyochang Science Inc.) mice aged 7 days after birth (P7) in a hyperoxic chamber (Coy Lab. in vivo chamber, 75% O2) for 5 days (P12), and then rearing the mice in a normoxic environment for 5 days (P17).\nAn oxygen-induced retinopathy mouse model was induced by rearing young C57BL/6J (Hyochang Science Inc.) mice aged 7 days after birth (P7) in a hyperoxic chamber (Coy Lab. in vivo chamber, 75% O2) for 5 days (P12), and then rearing the mice in a normoxic environment for 5 days (P17). SMx was diluted with Liposic (solvent) to 1 mM during P12 to P17 (5 days), which is the period of time when oxygen-induced retinopathy is induced from normal oxygen, and then administered by eye drops 3 times a day. The right eye was administered SMx, and the left eye was administered the control Liposic.\nas §1"}},
  "data": [
    {"smiles": "COC1=C(OC)C(=O)C(CCCCCCCCCC[P+](c2ccccc2)(c2ccccc2)c2ccccc2)=C(C)C1=O", "note": "[SMx]", "values": [
      {"measurement": "avascular area of the retina", "setting": "[1]", "value": "significantly reduced compared to the Eylea-injected mouse retina"},
      {"measurement": "neovascular area of the retina", "setting": "[1]", "value": "reduced to the same level as that of the Eylea-injected mouse retina"},
      {"measurement": "suppression of HIF-1α", "setting": "HIF-1α", "value": "effectively suppressed"},
      {"measurement": "suppression of neovascularization factor HIF1-α (HRE/GFP signal)", "setting": "HIF1-α", "value": "suppressed"},
      {"measurement": "avascular area", "setting": "[2]", "value": "significantly reduced"},
      {"measurement": "neovascular area", "setting": "[2]", "value": "significantly reduced"}
    ]}
  ]
}
